Read-outs that look alike come from different tables or passages of the source.
What was measured:
Renal Hypertensive Rats = assay: Antihypertensive effects in renal hypertensive rats (ligation of the left renal artery); format: in vivo; settings: Rattus norvegicus
Method: This procedure increases blood pressure by increasing renin production with consequent elevation of AII levels. Compounds are administered orally and/or intravenously via a cannula in the jugular vein. Arterial blood pressure is continuously measured directly through a carotid artery cannula and recorded using a pressure transducer and a polygraph. Blood pressure levels after treatment are compared to pretreatment levels to determine the antihypertensive effects of the compounds (See Table 5).

AII receptor = assay: Angiotensin II receptor binding (displacement of 3H-AII from rat adrenal cortical microsomes); settings: 50% displacement of specifically bound 3H-AII (2 nM), 1 hour, room temperature
Method: The hormone angiotensin II (AII) produces numerous biological responses (e.g. vasoconstriction) through stimulation of its receptors on cell membranes. […] The reaction mixture contained rat adrenal cortical microsomes (source of AII receptor) in Tris buffer and 2 nM of ^3 H-AII with or without potential AII antagonist. This mixture was incubated for 1 hour at room temperature and the reaction was subsequently terminated by rapid filtration and rinsing through glass micro-fibre filter. Receptor-bound ^3 H-AII trapped in filter was quantitated by scintillation counting.

arterial pressure = settings: cited from earlier work
AII = settings: cited from earlier work
[1] = iv, read-out: Antihypertensive Effects in Renal Hypertensive Rats, Intravenous Activity
[2] = po, read-out: Antihypertensive Effects in Renal Hypertensive Rats, Oral Activity

SMILES	IC50 (AII receptor)	minimal effective dose (Renal Hypertensive Rats; [1])	minimal effective dose (Renal Hypertensive Rats; [2])	further results
CCCc1cc(C=O)n(Cc2ccc(-c3ccccc3C(=O)O)cc2)n1 [Example 179, 5-Formyl-3-propyl-1-[(2'-carboxybiphenyl-4-yl)methyl]pyrazole]	> 3000 nM	> 30 mg/kg	> 30 mg/kg	–
CCCc1cc(C=O)nn1Cc1ccc(-c2ccccc2C(=O)O)cc1 [Example 178, 3-Formyl-5-propyl-1-[(2'-carboxybiphenyl-4-yl)methyl]pyrazole]	4100 nM	≤ 10 mg/kg	≤ 100 mg/kg	–
CCCc1ccc(C(=O)OCC)n1Cc1ccc(-c2ccccc2C(=O)O)cc1 [Example 278, Ethyl 5-n-propyl-1-[(2'-carboxybiphenyl-4-yl)methyl]pyrrole-2-carboxylate]	> 3000 nM	> 30 mg/kg	> 30 mg/kg	–
CCCc1cc(CO)n(Cc2ccc(-c3ccccc3C(=O)O)cc2)n1 [Example 177, 5-Hydroxymethyl-3-propyl-1-[(2'-carboxybiphenyl-4-yl)methyl]pyrazole]	> 3000 nM	> 30 mg/kg	> 30 mg/kg	–
CCCc1ccc(C(=O)O)n1Cc1ccc(-c2ccccc2C(=O)O)cc1 [Example 279, 5-n-Propyl-1-[(2'-carboxybiphenyl-4-yl)methyl]-pyrrole-2-carboxylic acid]	> 12000 nM	≤ 10 mg/kg	≤ 100 mg/kg	–
CCCCc1cn(Cc2ccc(-c3ccccc3-c3nn[nH]n3)cc2)nn1 [Example 3, 4-Butyl-1-[2'-(1H-tetrazol-5-yl)-biphenyl-4-yl]methyl-1,2,3-triazoles]	6000 nM	≤ 10 mg/kg	≤ 100 mg/kg	–
CCCc1cc(COC)n(Cc2ccc(-c3ccccc3C(=O)O)cc2)n1 [Example 174]	> 1000 nM	≤ 10 mg/kg	> 100 mg/kg	–
CCCCc1cn(Cc2ccc(-c3ccccc3C(=O)O)cc2)nn1 [Example 1, 4-Butyl-1-[(2'-carboxybiphenyl-4-yl)methyl]-1,2,3-triazole]	3000 nM	> 100 mg/kg	> 100 mg/kg	–
CCCc1cc(COC)nn1Cc1ccc(-c2ccccc2C(=O)O)cc1 [Example 173, 3-Methoxymethyl-5-propyl-1-[(2'-carboxybiphenyl-4-yl)methyl]pyrazole]	6700 nM	≤ 10 mg/kg	≤ 100 mg/kg	–
CCc1nnc(COC)n1Cc1ccc(-c2ccccc2C(=O)O)cc1 [Example 70, 3-Ethyl-5-methoxymethyl-4-[(2'-carboxybiphenyl-4-yl)methyl]-1,2,4-triazole]	5000 nM	≤ 10 mg/kg	> 100 mg/kg	–
CNCC(=O)N[C@@H](CCCN=C(N)N)C(=O)N[C@H](C(=O)N[C@@H](Cc1ccc(O)cc1)C(=O)N[C@H](C(=O)N[C@@H](Cc1cnc[nH]1)C(=O)N1CCC[C@H]1C(=O)N[C@@H](C)C(=O)O)C(C)C)C(C)C [Saralasin, [Sar^1, Ala^8] AII]	–	–	–	effect when the pressure is not sustained by AII (arterial pressure; due to its agonistic character): generally elicits pressor effects; effect on arterial pressure when the (elevated) pressure is dependent on circulating AII (arterial pressure; mammals and man): lower arterial pressure in mammals and man; effect of oral doses (arterial pressure; oral): ineffective; duration of pharmacological effects (arterial pressure; parenteral administration): relatively short-lasting; antagonism of the actions of AII (AII; pithed rats): one of the most potent competitive antagonists of the actions of AII; agonistic actions of its own (AII; rat, in vivo): possessed agonistic actions of its own
CCCCc1cc(COC)nn1Cc1ccc(-c2ccccc2C(=O)O)cc1 [Example 171, 3-Methoxymethyl-5-butyl-1-[(2'-carboxybiphenyl-4-yl)methyl]pyrazole]	290 nM	≤ 10 mg/kg	≤ 100 mg/kg	–
CCCCc1cc(COC)n(Cc2ccc(-c3ccccc3C(=O)O)cc2)n1 [Example 170, 5-Methoxymethyl-3-butyl-1-[(2'-carboxybiphenyl-4-yl)methyl]pyrazole]	7300 nM	≤ 10 mg/kg	> 100 mg/kg	–
CCCc1cc(C(=O)O)nn1Cc1ccc(-c2ccccc2C(=O)O)cc1 [Example 175, 3-Carboxy-5-propyl-1-[(2'-carboxybiphenyl-4-yl)methyl]pyrazole]	9500 nM	≤ 10 mg/kg	–	–

More lines, main results first:

IC50 (AII receptor)	SMILES	minimal effective dose (Renal Hypertensive Rats; [1])	minimal effective dose (Renal Hypertensive Rats; [2])	further results
730 nM	CCCc1nnc(COC)n1Cc1ccc(-c2ccccc2C(=O)O)cc1 [Example 69, 3-Methoxymethyl-5-propyl-4-[(2'-carboxybiphenyl-4-yl)methyl]-1,2,4-triazole]	≤ 10 mg/kg	> 100 mg/kg	–
720 nM	C=CCCc1cc(COC)nn1Cc1ccc(-c2ccccc2C(=O)O)cc1 [Example 172, 3-Methoxymethyl-5-but-3-enyl-1-[(2'-carboxybiphenyl-4-yl)methyl]-pyrazole]	≤ 10 mg/kg	≤ 100 mg/kg	–
2300 nM	CCCc1cc(CO)nn1Cc1ccc(-c2ccccc2C(=O)O)cc1 [Example 176, 3-Hydroxymethyl-5-propyl-1-[(2'-carboxybiphenyl-4-yl)methyl]pyrazole]	> 30 mg/kg	> 30 mg/kg	–
1000 nM	CCCCc1cnnn1Cc1ccc(-c2ccccc2C(=O)O)cc1 [Example 2]	≤ 10 mg/kg	≤ 100 mg/kg	–
140 nM	CCCc1nnc(COC)n1Cc1ccc(-c2ccccc2-c2nnn[nH]2)cc1 [Example 72, 3-Methoxymethyl-5-propyl-4-[(2'-(1H-tetrazol-5-yl)biphenyl-4-yl)methyl]-1,2,4-triazole]	≤ 10 mg/kg	≤ 100 mg/kg	–
300 nM	CCCCc1cnnn1Cc1ccc(-c2ccccc2-c2nn[nH]n2)cc1 [Example 4]	≤ 10 mg/kg	≤ 100 mg/kg	–
820 nM	CCCCc1nnc(CCCC)n1Cc1ccc(-c2ccccc2C(=O)O)cc1 [Example 71, 3,5-Dibutyl-4-[(2'-carboxybiphenyl-4-yl)methyl]-1,2,4-triazole]	≤ 10 mg/kg	> 100 mg/kg	–
1600 nM	CCCc1ccc(C(=O)OCC)n1Cc1ccc(-c2ccccc2-c2nnn[nH]2)cc1 [Example 277, Ethyl 5-n-propyl-1-[2'-(1H-tetrazol-5-yl)biphenyl-4-yl-methyl]pyrrole-2-carboxylate]	≤ 10 mg/kg	≤ 100 mg/kg	–
820 nM	CCCCc1nnc(COC)n1Cc1ccc(-c2ccccc2C(=O)O)cc1 [Example 67, 3-Butyl-5-methoxymethyl-4-[(2'-carboxybiphenyl-4-yl)methyl]-1,2,4-triazole]	≤ 10 mg/kg	> 100 mg/kg	–
1800 nM	CCCCc1nncn1Cc1ccc(-c2ccccc2C(=O)O)cc1 [Example 68, 3-Butyl-4-[(2'-carboxybiphenyl-4-yl)methyl]-1,2,4-triazole]	≤ 10 mg/kg	> 100 mg/kg	–

From US5043349A, “Substituted pyrrole angiotensin II antagonists” (E. I. Du Pont de Nemours and Company, priority 1990, dated 1991)
